Source: PubChem BioAssay AID2060891 (Molecular Pharmacology Branch, DTP, NCI, 2025)

System: K98450-129-R-PDC complex spheroid growth, percent test/control
Experiment: Anticancer human tumor K98450-129-R-PDC patient-derived colon adenocarcinoma cell line growth inhibition [RAS]
Settings: for IC50: curve of first compound; for viability, T/C: stronger effect = lower value
Source text: RAS pathway inhibitors in Combinations in Complex Spheroids
A high-throughput screen of multi-cell type tumor spheroids was designed to identify active combinations of RAS pathway inhibitors and targeted small molecules. Complex spheroids include a stromal component modeled by human endothelial cells (HUVEC) and fibroblasts modeled by human mesenchymal stem cells (MSCs). The concentration ranges selected for each drug and investigational agent were based upon clinically achievable concentrations if the clinical Cmax of the agent was known.
Compounds. The drugs and investigational agents: abemaciclib (NSC768073), cobimetinib (NSC768068), divarasib (GDC6063, NSC841802), docetaxel (NSC628503), GDC-1971 (RLY-1971, NSC841576), gemcitabine (NSC613327), inavolisib (NSC800729), ipatasertib (NSC767898), KB-0742 (NSC834161), MRTX-1133 (NSC836407), osimertinib (NSC779217), RMC-4630 (NSC839698), RMC-6236 (NSC851965), RMC-6291 (NSC852671), Ro-3306 (NSC812927), sapanisertib (NSC764658), SN-38 (NSC673596), staurosporine (NSC755774), SY5609 (NSC837396), and tovorafenib (DAY101, NSC766906), were obtained from the National Cancer Institute (NCI) Developmental Therapeutics Program Chemical Repository. The FDA-approved anticancer drug set is available from the NCI Developmental Therapeutics Program. […] The stock solutions were prepared in dimethyl sulfoxide (DMSO, Sigma-Aldrich, St. Louis, MO, cat. D2650) at 800-fold the tested concentration and stored at -70 degrees C prior to their use. All drugs and investigational agents were tested over a range starting from a high concentration at or near the clinical Cmax and decreasing in half-log increments. If the clinical Cmax for an agent had not been determined, the highest concentration tested was 10 microM.
Cell Culture. All cells were maintained in an incubator at 37 degrees C and 5% CO2 with 95% humidity. The PDC lines were cultured according to standard operating procedures established by the NCI PDMR. All PDCs were thawed and cultured in Matrigel-coated flasks prepared with a working solution of 1X Ham's F-12 nutrient mix, without supplementation (Invitrogen, Waltham, MA, cat. 11765054), 100 U/mL penicillin-streptomycin (Invitrogen, cat. 15140122), and 2.5% Matrigel (Corning Inc., Corning, NY, cat. 354248) for the first three passages. The 362531-283-R-J2-PDC and 782815-120-R-J1-PDC lines were cultured in 6C/Colon 1B media, which includes advanced DMEM/F-12 (Thermo Fisher Scientific, cat. 12634028), 10 mM HEPES (Thermo Fisher Scientific, cat. 15630080), 1X GlutaMAX supplement (Thermo Fisher Scientific, cat. 35050061), 0.1 mg/mL primocin (InvivoGen, San Diego, CA, cat. ant-pm-2), 10% defined fetal bovine serum, heat inactivated (HyClone Laboratories Inc., Logan, UT, cat. SH30070.03HI), 50% L-WRN conditioned media (ATCC, cat. CRL-3276), 1.25 mM N-Acetyl-L-cysteine (Sigma-Aldrich, cat. A9165), 10 mM nicotinamide (Sigma-Aldrich, cat. N0636), 1X B-27 supplement (Thermo Fisher Scientific, cat. 17504044), 1X N-2 supplement (Thermo Fisher Scientific, cat. 17502048), 50 ng/mL human EGF (Thermo Fisher Scientific, cat. PHG0311), and 10 microM Y-27632 dihydrochloride (Tocris Bioscience, cat. 1254). The K12877-001-R-J1-PDC line was cultured in 6I media, which includes all 6C/Colon 1B media plus 10 ng/mL human FGF-10 (PeproTech, cat. 100-26), 1 ng/mL human FGF-2 (PeproTech, cat. 100-18B), 1 µM prostaglandin E2 (Tocris Bioscience, cat. 2296), […] hydrocortisone (Sigma-Aldrich, cat. H4001), and […] bovine insulin (Sigma-Aldrich, cat. I6634). The K86415-001-R-J1-PDC line was cultured in 6D media, which includes all 6C/Colon 1B media components minus the L-WRN conditioned media. The 485176-168-R4-J1-PDC was cultured in PANC media, which includes all 6C/Colon 1B media plus 100 ng/mL human FGF-10 (PeproTech, cat. 100-26), 500 nM SB-431542 (Selleckchem, cat. S1067), and 10 nM gastrin (Tocris Bioscience, cat. 3006). […]

[1] = second compound 0.0316 µM, first compound 0.00316 µM
[2] = second compound 0.0316 µM, first compound 0.01 µM
[3] = second compound 0.0316 µM, first compound 0.0316 µM
[4] = second compound 0.0316 µM, first compound 0.1 µM
[5] = second compound 0.0316 µM, first compound 0.316 µM
[6] = second compound 0.0316 µM, first compound 1 µM
[7] = second compound 0.1 µM, first compound 0.00316 µM
[8] = second compound 0.1 µM, first compound 0.01 µM
[9] = second compound 0.1 µM, first compound 0.0316 µM
[10] = second compound 0.1 µM, first compound 0.1 µM
[11] = second compound 0.1 µM, first compound 0.316 µM
[12] = second compound 0.1 µM, first compound 1 µM
[13] = second compound 0.316 µM, first compound 0.00316 µM
[14] = second compound 0.316 µM, first compound 0.01 µM
[15] = second compound 0.316 µM, first compound 0.0316 µM
[16] = second compound 0.316 µM, first compound 0.1 µM
[17] = second compound 0.316 µM, first compound 0.316 µM
[18] = second compound 0.316 µM, first compound 1 µM
[19] = second compound 1 µM, first compound 0.00316 µM
[20] = second compound 1 µM, first compound 0.01 µM
[21] = second compound 1 µM, first compound 0.0316 µM
[22] = second compound 1 µM, first compound 0.1 µM
[23] = second compound 1 µM, first compound 0.316 µM
[24] = second compound 1 µM, first compound 1 µM
[25] = second compound 3.16 µM, first compound 0.00316 µM
[26] = second compound 3.16 µM, first compound 0.01 µM
[27] = second compound 3.16 µM, first compound 0.0316 µM
[28] = second compound 3.16 µM, first compound 0.1 µM
[29] = second compound 3.16 µM, first compound 0.316 µM
[30] = second compound 3.16 µM, first compound 1 µM
[31] = second compound 10 µM, first compound 0.00316 µM
[32] = second compound 10 µM, first compound 0.01 µM
[33] = second compound 10 µM, first compound 0.0316 µM
[34] = second compound 10 µM, first compound 0.1 µM
[35] = second compound 10 µM, first compound 0.316 µM
[36] = second compound 10 µM, first compound 1 µM
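Also: spheroids exposed to agents for seven days before the viability readout.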
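For viability, T/C in this document: luminescence used as a proxy for viable cell amount.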

C=CC(=O)Nc1cc(Nc2nccc(-c3cn(C)c4ccccc34)n2)c(OC)cc1N(C)CCN(C)C + C#Cc1c(F)ccc2cc(O)cc(-c3ncc4c(N5CC6CCC(C5)N6)nc(OCC56CCCN5CC(F)C6)nc4c3F)c12 gave an IC50 (second compound 0.0316 µM) of 622 nM, an IC50 (second compound 0.1 µM) of 637 nM and an IC50 (second compound 0.316 µM) of 584 nM. For the same compound, the IC50 (second compound 1 µM) was 468 nM, the IC50 (second compound 3.16 µM) was 330 nM and the IC50 (second compound 10 µM) was 193 nM. For the same compound, the viability, T/C [1] was 107%, the viability, T/C [2] was 112% and the viability, T/C [3] was 106%. It also gave a viability, T/C [4] of 100%, a viability, T/C [5] of 69.4% and a viability, T/C [6] of 36.4%. The viability, T/C [7] was 107%, the viability, T/C [8] was 100% and the viability, T/C [9] was 103%. It also gave a viability, T/C [10] of 101%, a viability, T/C [11] of 79.6% and a viability, T/C [12] of 30.9%. It also gave a viability, T/C [13] of 112%, a viability, T/C [14] of 106% and a viability, T/C [15] of 97.9%. It also gave a viability, T/C [16] of 95.8%, a viability, T/C [17] of 78.6% and a viability, T/C [18] of 26%. The viability, T/C [19] was 105%, the viability, T/C [20] was 105% and the viability, T/C [21] was 92.6%. For the same compound, the viability, T/C [22] was 95%, the viability, T/C [23] was 66.3% and the viability, T/C [24] was 16.6%. It also gave a viability, T/C [25] of 93.7%, a viability, T/C [26] of 94.3% and a viability, T/C [27] of 94.6%. The viability, T/C [28] was 89.7%, the viability, T/C [29] was 51.5% and the viability, T/C [30] was 11.5%. The viability, T/C [31] was 91.9%, the viability, T/C [32] was 85.3% and the viability, T/C [33] was 90.1%. It also gave a viability, T/C [34] of 79.3%, a viability, T/C [35] of 28% and a viability, T/C [36] of 10.6%.
O=C(c1ccc(F)c(F)c1Nc1ccc(I)cc1F)N1CC(O)([C@@H]2CCCCN2)C1 + C#Cc1c(F)ccc2cc(O)cc(-c3ncc4c(N5CC6CCC(C5)N6)nc(OCC56CCCN5CC(F)C6)nc4c3F)c12 was tested, and the IC50 (second compound 0.0316 µM) was 187 nM, the IC50 (second compound 0.1 µM) was 185 nM and the IC50 (second compound 0.316 µM) was 170 nM. It also gave an IC50 (second compound 1 µM) of 171 nM, an IC50 (second compound 3.16 µM) of 159 nM and an IC50 (second compound 10 µM) of 125 nM. It also gave a viability, T/C [1] of 108%, a viability, T/C [2] of 105% and a viability, T/C [3] of 90.7%. For the same compound, the viability, T/C [4] was 87.1%, the viability, T/C [5] was 19.3% and the viability, T/C [6] was 3.6%. The viability, T/C [7] was 113%, the viability, T/C [8] was 100% and the viability, T/C [9] was 107%. The viability, T/C [10] was 84.3%, the viability, T/C [11] was 20.2% and the viability, T/C [12] was 4.03%. The viability, T/C [13] was 109%, the viability, T/C [14] was 106% and the viability, T/C [15] was 95.6%. It also gave a viability, T/C [16] of 77.7%, a viability, T/C [17] of 18.3% and a viability, T/C [18] of 4.22%. It also gave a viability, T/C [19] of 105%, a viability, T/C [20] of 99.8% and a viability, T/C [21] of 93.2%. The viability, T/C [22] was 77.3%, the viability, T/C [23] was 19.3% and the viability, T/C [24] was 3.49%. For the same compound, the viability, T/C [25] was 97%, the viability, T/C [26] was 89.7% and the viability, T/C [27] was 91.3%. The viability, T/C [28] was 73.1%, the viability, T/C [29] was 15.6% and the viability, T/C [30] was 4.86%. The viability, T/C [31] was 86%, the viability, T/C [32] was 82.1% and the viability, T/C [33] was 70.5%. The viability, T/C [34] was 60.7%, the viability, T/C [35] was 12.1% and the viability, T/C [36] was 3.34%.
